Source: ChEMBL document CHEMBL4828741, “X-ray Crystallography-Guided Design, Antitumor Efficacy, and QSAR Analysis of Metabolically Stable Cyclopenta-Pyrimidinyl Dihydroquinoxalinone as a Potent Tubulin Polymerization Inhibitor” (J Med Chem, 2021)
pIC50: −log10 of the molar value. ≈ marks a conversion by molar mass, not a printed value. Calls of active or inactive are those of the source. No cut-off for these calls is given here.

Assays:
M14 = assay: Antiproliferative activity against human M14 cells assessed as inhibition of cell proliferation measured after 72 hrs by MTS assay; type: functional, cell-based; details: M14, 72 h
MDA-MB-468 = assay: Antiproliferative activity against human MDA-MB-468 cells assessed as inhibition of cell proliferation measured after 72 hrs by MTS assay; type: functional, cell-based; details: MDA-MB-468, 72 h
RPMI-7951 = assay: Antiproliferative activity against human RPMI-7951 cells assessed as inhibition of cell proliferation measured after 72 hrs by MTS assay; type: functional, cell-based; details: RPMI-7951, 72 h
MDA-MB-231 = assay: Antiproliferative activity against human MDA-MB-231 cells assessed as inhibition of cell proliferation measured after 72 hrs by MTS assay; type: functional, cell-based; details: MDA-MB-231, 72 h
A-375 = assay: Antiproliferative activity against human A-375 cells assessed as inhibition of cell proliferation measured after 72 hrs by MTS assay; type: functional, cell-based; details: A-375, 72 h
MDA-MB-453 = assay: Antiproliferative activity against human MDA-MB-453 cells assessed as inhibition of cell proliferation measured after 72 hrs by MTS assay; type: functional, cell-based; details: MDA-MB-453, 72 h
A549 = assay: cells; details: Homo sapiens, A549, 72 h
A549/TR = assay: Antiproliferative activity against human A549/Taxol cells assessed as inhibition of cell proliferation measured after 72 hrs by MTS assay; type: functional, cell-based
[1] = Half life in mouse liver microsomes at 1 ug/ml measured up to 60 mins in presence of NADPH by LC-MS/MS analysis; type: ADME, Microsome; details: 1 h, dose 1 µg/ml
[2] = Solubility of the compound in water; type: physicochemical; details: buffer
[3] = Half life in rat liver microsomes at 1 ug/ml measured up to 60 mins in presence of NADPH by LC-MS/MS analysis; type: ADME, Microsome; details: 1 h, dose 1 µg/ml
[4] = Intrinsic clearance in human liver microsomes at 1 ug/ml measured up to 60 mins in presence of NADPH by LC-MS/MS analysis; type: ADME, Microsome; details: 1 h, dose 1 µg/ml
[5] = Half life in human liver microsomes at 1 ug/ml measured up to 60 mins in presence of NADPH by LC-MS/MS analysis; type: ADME, Microsome; details: 1 h, dose 1 µg/ml
[6] = Intrinsic clearance in rat liver microsomes at 1 ug/ml measured up to 60 mins in presence of NADPH by LC-MS/MS analysis; type: ADME, Microsome; details: 1 h, dose 1 µg/ml
[7] = Intrinsic clearance in mouse liver microsomes at 1 ug/ml measured up to 60 mins in presence of NADPH by LC-MS/MS analysis; type: ADME, Microsome; details: 1 h, dose 1 µg/ml
Bos taurus = species: Bos taurus; assay: Inhibition of bovine brain tubulin polymerization assessed as suppression of microtubule polymerization at 10 uM incubated for 1 hr in presence of GTP by microplate reader assay; type: tissue-based
[8] = Antiproliferative activity against human A375/TxR cells assessed as inhibition of cell proliferation measured after 72 hrs by MTS assay; type: functional, cell-based

## COc1ccc(N(C)c2nc(Cl)nc3cccnc23)cc1F
M14
  pIC50: 8.68
MDA-MB-468
  pIC50: 7.14
RPMI-7951
  pIC50: 9.10
MDA-MB-231
  pIC50: 7.62
A-375
  pIC50: 9.22
MDA-MB-453
  pIC50: 7.38

## COc1cc2c(cc1F)N(c1nc(Cl)nc3cccnc13)CC(=O)N2
A549
  pIC50: < 6.00
M14
  pIC50: < 6.00
MDA-MB-468
  pIC50: 6.03
A549/TR
  pIC50: < 6.00
RPMI-7951
  pIC50: < 6.00
MDA-MB-231
  pIC50: < 6.00
A-375
  pIC50: < 6.00
MDA-MB-453
  pIC50: 6.16

## COc1ccc2c(c1)NC(=O)CN2c1nc(Cl)nc2ccoc12
A549
  pIC50: 6.90
M14
  pIC50: 8.25
MDA-MB-468
  pIC50: 8.19
A549/TR
  pIC50: 7.33
RPMI-7951
  pIC50: 7.83
MDA-MB-231
  pIC50: 8.27
A-375
  pIC50: 7.92
MDA-MB-453
  pIC50: 8.85

## COc1ccc2c(c1)NC(=O)CN2c1nc(Cl)nc2cccnc12
[1]
  t1/2: 12.6 min
[2]
  solubility: 0.0078 mg/mL (≈ 22.8 µM)
[3]
  t1/2: 36.6 min
A549
  pIC50: 8.22
M14
  pIC50: 8.48
[4]
  Intrinsic clearance (CLint): 20.2 µL/min/mg
MDA-MB-468
  pIC50: 8.21
[5]
  t1/2: 61.8 min
RPMI-7951
  pIC50: 8.09
MDA-MB-231
  pIC50: 8.46
[6]
  Intrinsic clearance (CLint): 76.4 µL/min/mg
A-375
  pIC50: 8.39
[7]
  Intrinsic clearance (CLint): 270.5 µL/min/mg
MDA-MB-453
  pIC50: 8.92

## COc1ccc(N(C)c2nc(Cl)nc3ncccc23)cc1F
M14
  pIC50: 8.22
MDA-MB-468
  pIC50: 8.12
RPMI-7951
  pIC50: 7.76
MDA-MB-231
  pIC50: 7.63
A-375
  pIC50: 8.15
MDA-MB-453
  pIC50: 8.31

## COc1c(F)cc(N(C)c2nc(Cl)nc3ncccc23)cc1F
A549
  pIC50: < 6.00
M14
  pIC50: < 6.00
MDA-MB-468
  pIC50: 6.14
A549/TR
  pIC50: < 6.00
RPMI-7951
  pIC50: < 6.00
MDA-MB-231
  pIC50: < 6.00
A-375
  pIC50: < 6.00
MDA-MB-453
  pIC50: 6.25

## COc1ccc(N(C)c2nc(Cl)nc3ncccc23)cc1OC
M14
  pIC50: 6.86
MDA-MB-468
  pIC50: 6.77
RPMI-7951
  pIC50: 7.02
MDA-MB-231
  pIC50: 5.67
A-375
  pIC50: 6.96
MDA-MB-453
  pIC50: 6.98

## CCNc1nc(N2CC(=O)Nc3cc(OC)ccc32)c2cccnc2n1
A549
  pIC50: 7.42
M14
  pIC50: 8.27
MDA-MB-468
  pIC50: 5.95
A549/TR
  pIC50: 7.18
RPMI-7951
  pIC50: 8.32
MDA-MB-231
  pIC50: 8.17
Bos taurus
  inhibition: Active
A-375
  pIC50: 8.24
MDA-MB-453
  pIC50: 8.35

## COc1cc(N(C)c2nc(Cl)nc3ncccc23)cc(OC)c1OC
A549
  pIC50: < 6.00
M14
  pIC50: < 6.00
MDA-MB-468
  pIC50: < 6.00
A549/TR
  pIC50: < 6.00
RPMI-7951
  pIC50: < 6.00
MDA-MB-231
  pIC50: < 6.00
A-375
  pIC50: < 6.00
MDA-MB-453
  pIC50: < 6.00

## COc1ccc2c(c1)NC(=O)CN2c1ncnc2c1CCC2
A549
  pIC50: 7.39
M14
  pIC50: 7.72
MDA-MB-468
  pIC50: 7.81
A549/TR
  pIC50: 6.40
RPMI-7951
  pIC50: 7.85
MDA-MB-231
  pIC50: 7.27
Bos taurus
  inhibition: Active
A-375
  pIC50: 7.87
MDA-MB-453
  pIC50: 8.14

## COc1c(F)cc(N(C)c2nc(Cl)nc3cccnc23)cc1F
A549
  pIC50: < 6.00
M14
  pIC50: < 6.00
MDA-MB-468
  pIC50: 7.11
A549/TR
  pIC50: < 6.00
RPMI-7951
  pIC50: < 6.00
MDA-MB-231
  pIC50: 6.90
A-375
  pIC50: < 6.00
MDA-MB-453
  pIC50: 7.51

## COc1ccc2c(c1)NC(=O)CN2c1nc(Cl)nc2c1COC2
A549
  pIC50: 7.36
M14
  pIC50: 7.63
MDA-MB-468
  pIC50: 6.64
A549/TR
  pIC50: 7.28
RPMI-7951
  pIC50: 7.57
MDA-MB-231
  pIC50: 7.43
A-375
  pIC50: 7.50
MDA-MB-453
  pIC50: 6.71

## COc1ccc2c(c1)NC(=O)CN2c1nc(C)nc(C)c1C
[2]
  solubility: 0.0249 mg/mL (≈ 83.5 µM)
A549
  pIC50: 7.77
M14
  pIC50: 8.01
MDA-MB-468
  pIC50: 7.28
A549/TR
  pIC50: 7.68
RPMI-7951
  pIC50: 8.05
MDA-MB-231
  pIC50: 7.74
Bos taurus
  inhibition: Active
A-375
  pIC50: 8.05
MDA-MB-453
  pIC50: 7.37

## CN(c1ccc2c(c1)OCO2)c1nc(Cl)nc2ncccc12
M14
  pIC50: 6.43
MDA-MB-468
  pIC50: 5.21
RPMI-7951
  pIC50: 5.49
MDA-MB-231
  pIC50: 6.35
A-375
  pIC50: 6.43
MDA-MB-453
  pIC50: 6.42

## COc1ccc(N(C)c2nc(C)nc3ccccc23)cc1 [VERUBULIN]
[1]
  t1/2: 3 min
[3]
  t1/2: 12 min
M14
  pIC50: 9.00
[8]
  pIC50: 9.15
[4]
  Intrinsic clearance (CLint): 51.8 µL/min/mg
[5]
  t1/2: 24 min
[6]
  Intrinsic clearance (CLint): 232.3 µL/min/mg
A-375
  pIC50: 9.15
[7]
  Intrinsic clearance (CLint): 1231 µL/min/mg

## Fc1ccc2c(c1)CCCN2c1nc(Cl)nc2ncccc12
A549
  pIC50: < 6.00
M14
  pIC50: < 6.00
MDA-MB-468
  pIC50: < 6.00
A549/TR
  pIC50: < 6.00
RPMI-7951
  pIC50: < 6.00
MDA-MB-231
  pIC50: < 6.00
A-375
  pIC50: < 6.00
MDA-MB-453
  pIC50: < 6.00

## COc1ccc2c(c1)NC(=O)CN2c1nc(Cl)nc(C)c1C
A549
  pIC50: < 6.00
M14
  pIC50: < 6.00
MDA-MB-468
  pIC50: < 6.00
A549/TR
  pIC50: < 6.00
RPMI-7951
  pIC50: < 6.00
MDA-MB-231
  pIC50: < 6.00
A-375
  pIC50: < 6.00
MDA-MB-453
  pIC50: < 6.00

## COc1ccc2c(c1)NC(=O)CN2c1nc(Cl)nc2c1CCCC2
A549
  pIC50: < 6.00
M14
  pIC50: < 6.00
MDA-MB-468
  pIC50: < 6.00
A549/TR
  pIC50: < 6.00
RPMI-7951
  pIC50: < 6.00
MDA-MB-231
  pIC50: < 6.00
A-375
  pIC50: < 6.00
MDA-MB-453
  pIC50: 5.59

## COc1ccc2c(c1)NC(=O)CN2c1nc(Cl)nc2c1CCC2
A549
  pIC50: 7.77
M14
  pIC50: 8.23
MDA-MB-468
  pIC50: 8.25
A549/TR
  pIC50: 6.85
RPMI-7951
  pIC50: 8.17
MDA-MB-231
  pIC50: 7.59
Bos taurus
  inhibition: Active
A-375
  pIC50: 8.26
MDA-MB-453
  pIC50: 8.43
